Assay results published in the OligoGym collection.
“And” between values parts separate entries of the source, which are not always exact repeats. Equal entries are not always repeated. After the bases stand the sugars from the 5' end (letter, count) and the backbone: PS all phosphorothioate, else s phosphorothioate and o phosphodiester by linkage. Methylation of C is not given here. e = 2'-O-(2-methoxyethyl) (MOE); k = constrained ethyl (cEt); d = 2'-deoxy (DNA)

Target: IRF5
Conditions: ASO

Sequence | target mRNA inhibition (KARPAS-229, 4 µM) | also measured
CTGATATGATACCTAA (sugars k3 d10 k3, PS) | 59% and 76% | target mRNA inhibition (A-431, 0.00412 µM): 13%; target mRNA inhibition (A-431, 0.01225 µM): 29%; target mRNA inhibition (A-431, 0.03704 µM): 54%; target mRNA inhibition (A-431, 0.11111 µM): 80%; target mRNA inhibition (A-431, 0.33333 µM): 88%; target mRNA inhibition (A-431, 1 µM): 90%; target mRNA inhibition (KARPAS-229, 0.44444 µM): 42%; target mRNA inhibition (KARPAS-229, 1.33333 µM): 45%; target mRNA inhibition (KARPAS-229, 12 µM): 77%
TTCTGCAGGGAGTCAG (sugars kdddddddddkekeke, PS) | 0% | –
ACTGACACAGGCGGAT (sugars k2 d9 e3 k2, PS) | 0% | –
ACTGACACAGGCGGAT (sugars kkddddddddddkeke, PS) | 0% | –
ATCACCACTGTGTACC (sugars kkkdddddddddkeke, PS) | 0% | –
AGATGGTGTTATCTCC (sugars kdddddddddkekeke, PS) | 0% | –
CACTGACACAGGCGGA (sugars kkkddddddddkekek, PS) | 0% | –
ACCATTCTATGCCTTT (sugars kkkddddddddkekek, PS) | 15% | –
TTGTCTAGTGTCATGG (sugars kkkddddddddkdkdk, PS) | 36% | –
GGTCTTTGAGGTCTGG (sugars kkdddddddddkdkdk, PS) | 56% | –
CCTTCTGCAGGGAGTC (sugars kdddddddddkekeke, PS) | 0% | –
TGAGTCATGGAGCTGAG (sugars kdddddddddkekeked, PS) | 0% | –
ACCATTCTATGCCTTT (sugars kkkdddddddddkeke, PS) | 49% | –
AAGGGCACAGACGCAGG (sugars kdddddddddkekeked, PS) | 0% | –
TCCAATTTTGCATTCC (sugars k3 d9 k3 e1, PS) | 7% | –
GTTCTTGGACTCTCAA (sugars kkkddddddddkekek, PS) | 0% | –
TATTTCTGCTCCAGGT (sugars k3 d9 k3 e1, PS) | 45% and 67% | target mRNA inhibition (KARPAS-229, 0.44444 µM): 46%; target mRNA inhibition (KARPAS-229, 1.33333 µM): 52%; target mRNA inhibition (KARPAS-229, 12 µM): 74%
ACCACTGTGTACCCCA (sugars k3 d10 k3, PS) | 75% and 57% | target mRNA inhibition (KARPAS-229, 0.44444 µM): 16%; target mRNA inhibition (KARPAS-229, 1.33333 µM): 41%; target mRNA inhibition (KARPAS-229, 12 µM): 65%
TATCTCCGTCCTGGCT (sugars kddddddddddkekek, PS) | 0% | –
CATTCCATATACACAC (sugars k2 d9 e3 k2, PS) | 21% | –
CCAATGCAACATCCAT (sugars k2 d8 e4 k2, PS) | 0% | –
TTCTTGGACTCTCAAG (sugars kkddddddddkekekk, PS) | 0% | –
ACCACTGTGTACCCCA (sugars kekdddddddddeekk, PS) | 63% and 62% | target mRNA inhibition (KARPAS-229, 0.44444 µM): 28%; target mRNA inhibition (KARPAS-229, 1.33333 µM): 45%; target mRNA inhibition (KARPAS-229, 12 µM): 77%
CTGTCACATCTCCACA (sugars kkkddddddddkekek, PS) | 0% | –

Sequence | target mRNA inhibition (KARPAS-229, 4 µM) | also measured
TTGTCTAGTGTCATGG (sugars kkkdddddddddkeke, PS) | 39% | –
GTAATAGGAGTGAGAC (sugars k3 d10 k3, PS) | 11% | –
CATTCCATATACACAC (sugars kekdddddddddeekk, PS) | 24% | –
CAGGTTCTTGGACTCT (sugars kkkdddddddddkeke, PS) | 1% | –
TATTTCTGCTCCAGGT (sugars kkdddddddddkekek, PS) | 5% | –
ACATCTCCACATCAGT (sugars k2 d9 e3 k2, PS) | 41% | –
GTCTAGTGTCATGGAA (sugars kdddddddddkekeke, PS) | 35% | –
TGCACTGACACAGGCG (sugars kkddddddddkekekk, PS) | 0% | –
CTGTCACATCTCCACA (sugars k3 d9 k3 e1, PS) | 28% | –
CCATTCTATGCCTTTT (sugars kkdddddddddkekek, PS) | 62% and 61% | target mRNA inhibition (KARPAS-229, 0.44444 µM): 29%; target mRNA inhibition (KARPAS-229, 12 µM): 81%
ACATCTCCACATCAGT (sugars kkkddddddddkekek, PS) | 14% | –
CAATTTTGCATTCCAT (sugars k3 d10 k3, PS) | 52% | –
GGTTCTTGGACTCTCA (sugars k3 d9 k3 e1, PS) | 0% | –
GAGTCATGGGCTGAGG (sugars kkddddddddddkeke, PS) | 40% | –
GGTTCTTGGACTCTCA (sugars k2 d11 k3, PS) | 47% | –
GCCTTCTGCAGGGAGT (sugars k3 d10 k3, PS) | 0% | –
CCAATTTTGCATTCCA (sugars k2 d9 e3 k2, PS) | 30% | –
GGTTCTTGGACTCTCA (sugars kkddddddddkekekk, PS) | 0% | –
ACATCTCCACATCAGT (sugars kkdddddddddkdkdk, PS) | 28% | –
GTGAGTCTCAAACCAG (sugars kkddddddddddkeke, PS) | 31% | –
ATCACCACTGTGTACC (sugars kddddddddddkekek, PS) | 0% | –
TCACCACTGTGTACCC (sugars kkdddddddddkdkdk, PS) | 0% | –
ACCACTGTGTACCCCA (sugars kkddddddddkekekk, PS) | 15% | –
TCTGGCCCTTTTGGAA (sugars kdddddddddkekeke, PS) | 0% | –

Sequence | target mRNA inhibition (KARPAS-229, 4 µM) | also measured
GTCTGGCCCTTTTGGA (sugars kkkddddddddkekek, PS) | 0% | –
GAAGTGAGTCTCAAAC (sugars kdddddddddkekeke, PS) | 11% | –
GCATTCCATATACACA (sugars kekdddddddddeekk, PS) | 48% | –
GTTCTTGGACTCTCAA (sugars kdddddddddkekeke, PS) | 0% | –
TGCAACATCCATCAAT (sugars k3 d10 k2 d1, PS) | 0% | –
ACCCAATGCAACATCC (sugars k3 d10 k3, PS) | 33% | –
TTCTGCAGGGAGTCAG (sugars kddddddddddkekek, PS) | 4% | –
CATCTCCACATCAGTC (sugars kkddddddddkekekk, PS) | 23% | –
GGTCTTGACCTCCCGC (sugars kkkdddddddddkeke, PS) | 7% | –
AGACTTTTTGCTCTAA (sugars k3 d10 k3, PS) | 0% | –
CCTTCTGCAGGGAGTC (sugars kkkddddddddkekek, PS) | 0% | –
CCTTCTGCAGGGAGTC (sugars kddddddddddkekek, PS) | 0% | –
GGTGAGTAGGACGAGT (sugars k3 d10 k3, PS) | 48% | –
TGAGTCTCAAACCAGG (sugars k2 d8 e4 k2, PS) | 0% | –
AGGAGTGAGACGAGCA (sugars kkkddddddddkdkdk, PS) | 37% | –
GTCTTGACCTCCCGCT (sugars k3 d9 k3 e1, PS) | 51% | –
CCATTCTATGCCTTTT (sugars k3 d10 k3, PS) | 43% | –
GCATTCCATATACACA (sugars k3 d9 k3 e1, PS) | 25% | –
ATGAGTCATGGGCTGA (sugars kdddddddddkekeke, PS) | 7% | –
CCTTCTGCAGGGAGTC (sugars kekdddddddddeekk, PS) | 14% | –
AGTCATGGGCTGAGGC (sugars kddddddddddkekek, PS) | 25% | –
GCATTCCATATACACA (sugars kkkddddddddkdkdk, PS) | 0% | –
GGAAGTGAGTCTCAAA (sugars kkddddddddddkeke, PS) | 55% and 49% | target mRNA inhibition (KARPAS-229, 0.44444 µM): 6%; target mRNA inhibition (KARPAS-229, 1.33333 µM): 12%; target mRNA inhibition (KARPAS-229, 12 µM): 65%
TTCTTGTCTAGTGTCA (sugars k3 d10 k3, PS) | 49% | –

Sequence | target mRNA inhibition (KARPAS-229, 4 µM) | also measured
GTGTCATGGAATTTTG (sugars k3 d10 k3, PS) | 58% | –
CCAATGCAACATCCAT (sugars kkddddddddkekekk, PS) | 0% | –
CTTCTGCAGGGAGTCA (sugars kkdddddddddkekek, PS) | 0% | –
CAGGTTCTTGGACTCT (sugars kdddddddddkekeke, PS) | 0% | –
AGGTTCTTGGACTCTC (sugars kkkdddddddddkeke, PS) | 0% | –
AGGAAGTGAGTCTCAA (sugars kddddddddddkekek, PS) | 11% | –
CTTTTTGCTCTAAACC (sugars k3 d10 k3, PS) | 0% | –
TCAGCTTTCTTGTCTA (sugars k3 d10 k3, PS) | 15% | –
GGTCTTGACCTCCCGC (sugars k3 d9 k3 e1, PS) | 22% | –
TCTTGTCTAGTGTCAT (sugars k3 d10 k3, PS) | 0% | –
GAGTGAGACGAGCAAA (sugars kkddddddddkekekk, PS) | 17% | –
GTTCTTGGACTCTCAA (sugars k3 d9 k3 e1, PS) | 37% | –
GCTTGGTCTTGACCTC (sugars kkkddddddddkekek, PS) | 0% | –
TGAGTCATGGGCTGAG (sugars kkdddddddddkekek, PS) | 0% | –
ACCACTGTGTACCCCA (sugars kkkdddddddddkeke, PS) | 39% | –
GGTTCTTGGACTCTCA (sugars kekdddddddddeekk, PS) | 60% and 66% | target mRNA inhibition (KARPAS-229, 0.44444 µM): 31%; target mRNA inhibition (KARPAS-229, 1.33333 µM): 44%; target mRNA inhibition (KARPAS-229, 12 µM): 81%
TGCACTGACACAGGCG (sugars k2 d8 e4 k2, PS) | 0% | –
AATGCAACATCCATCA (sugars k3 d10 k3, PS) | 0% | –
GCTGTCACATCTCCAC (sugars kekdddddddddeekk, PS) | 0% | –
CAATGCAACATCCATC (sugars kkddddddddkekekk, PS) | 0% | –
CCAATTTTGCATTCCA (sugars kkkddddddddkekek, PS) | 42% | –
